Experimental data taken from paper PMC9603750, “Chalcone-Acridine Hybrid Suppresses Melanoma Cell Progression via G2/M Cell Cycle Arrest, DNA Damage, Apoptosis, and Modulation of MAP Kinases Activity” (International Journal of Molecular Sciences, 2022).

Experiments:
A2058 = assay: BrdU cell proliferation assay; type: cell-based, human
Description: (§1) The BrdU Cell Proliferation Assay is based on the detection of BrdU (5-bromo-2′-deoxyuridine) incorporated into the newly synthesized DNA during the replication process in proliferating cells.
(§2) The A2058 (5 × 10^3/well) and BLM (5 × 10^3/well) melanoma cells were plated in a 96-well culture plate in 80 μL suitable medium. Twenty-four hours after cell seeding, different concentrations of the chalcone 1C were added ranging from 5–20 μmol/L. After 48 h of treatment, BrdU labelling solution was added to melanoma cells and incubated for another 24 h at 37 °C followed by fixation and incubation with anti-BrdU peroxidase conjugate solution for an additional 90 min in the dark at room temperature. Cells were then washed 3× with washing solution and incubated with TMB (tetramethylbenzidine) substrate solution (all Roche, Basel, Switzerland) for 5 to 30 min according to colour intensity. Finally, the stop solution (25 μL 1 M H2SO4) was added, and the incorporated BrdU was detected with an automated Cytation™ 3 Cell Imaging Multi-Mode Reader (Biotek, Winooski, VT, USA) at 450 nm. Three independent analyses were performed.

BLM = assay: BrdU cell proliferation assay; type: cell-based, human
Description: as §1, §2

BLM melanoma cells [1] = assay: Apoptosis detection, Annexin V/PI staining; type: cell-based, human; conditions: 1C 20 μmol/L
Excerpt: Phosphatidylserine (PS) is an anionic phospholipid located on the cytoplasmic surface of the plasma membrane in cells with intact membranes. The externalization of PS from the inner to outer surface of the lipid bilayer of plasma membrane is a typical marker of apoptosis in the early stages. Annexin V/PI double staining is a method for dividing cells into populations of living (An^−/PI^− Q3), early apoptotic (An^+/PI^− Q4), late apoptotic/necrotic (An^+/PI^+ Q2) and dead (An^−/PI^+ Q1). […] Furthermore, the concomitant decrease of living cells and the increased number of dead cells were also observed in a time-dependent pattern (Table 4, Figure 4).
To perform apoptosis detection, A2058 and BLM melanoma cells were seeded in Petri dishes at a density of 1 × 10^5/dish and treated with chalcone 1C and DMSO as the negative control at the same concentrations for 24, 48 and 72 h. In the next step, adherent and floating melanoma cells were harvested, centrifuged and pellets were resuspended in washing buffer (PBS). Resuspended melanoma cells were stained with Annexin V-Alexa Fluor® 647 antibody (Thermo Scientific, Rockford, IL, USA) in binding buffer for 20 min in the dark at room temperature. Finally, melanoma cells were washed, stained with 1 μL of propidium iodide (final concentration 25 μg/mL) for 5 min and analysed using a BD FACSCalibur^TM Flow Cytometer (Becton Dickinson, San Jose, CA, USA). Three independent analyses were performed.

A2058 melanoma cells = assay: AO/PI viability assay (fluorescence microscopy); type: cell-based, human; conditions: A2058, 1C 10 μmol/L, 24, 48 and 72 h
Description: (§3) The A2058 and BLM melanoma cells were seeded at a density of 5 × 10^4/well into 6-well culture plates. Twenty-four hours after seeding, A2058 cells were treated with chalcone 1C at 10 μmol/L concentration, BLM cells at 20 μmol/L concentration and both melanoma cell lines were treated with vehicle (DMSO) at the same concentrations. At 24, 48 and 72 h after treatment, the culture medium was removed, the cells were washed with washing buffer (PBS) and fixed with 4% paraformaldehyde (pH 7.2) for 30 min. In the next step, the paraformaldehyde was removed, the cells were washed with PBS and the staining solution (10 μg/mL acridine orange and 10 μg/mL propidium iodide, Sigma-Aldrich) was added to each well for 1 h incubation at room temperature in the dark. Finally, the staining solution was removed, the cells were washed with PBS and apoptosis was observed using an automated Cytation™ 3 Cell Imaging Multi-Mode Reader (Biotek, Winooski, VT, USA).

BLM melanoma cells [2] = assay: AO/PI viability assay (fluorescence microscopy); type: cell-based, human; conditions: 1C 20 μmol/L, 24, 48 and 72 h
Description: as §3

MCF-10A = assay: MTT assay (metabolic activity); type: cell-based; conditions: Homo sapiens; MCF-10A noncancer cell line, 72 h incubation
Description: Cell lines A2058 (human melanoma lymph node metastasis, cat. 91100402) from ECACC (Public Health England, Salisbury, UK) and BLM (human melanoma lung metastasis a gift from prof. K. Smetana, Institute of Anatomy, Charles University in Prague) were cultured in a medium consisting of high glucose Dulbecco’s Modified Eagle’s Medium (DMEM) and sodium pyruvate (GE Healthcare, Piscataway, NJ, USA). The growth medium was supplemented with a 10% fetal bovine serum (FBS) and antibiotic/antimycotic solution 1 × HyClone™ (GE Healthcare, Chicago, IL, USA). The MCF-10A (human mammary epithelial cells) cell line was cultured in a medium consisting of high glucose Dulbecco’s Modified Eagle’s Medium F12 (DMEM/F12) (Biosera, Kansas City, MO, USA). The growth medium was supplemented with a 10% FBS, antibiotic/antimycotic solution 1 × HyClone™ (GE Healthcare, Chicago, IL, USA), epidermal growth factor (EGF) (20 ng/mL final), hydrocortisone (0.5 μg/mL final) and insulin (10 μg/mL final) (Sigma-Aldrich Chemie, Steinheim, Germany). Cells were cultured in humidified air at 37 °C with atmosphere containing 5% CO2.
The half-maximal inhibitory concentration values (IC50) and metabolism inhibition of tested synthetic chalcone derivatives were determined by MTT (3-(4,5-di-methylthiazol-2-yl)2,5-diphenyltetrazolium bromide) colorimetric assay (Sigma-Aldrich Chemie, Steinheim, Germany). Tested cell lines were seeded at a density of 5 × 10^3 cells/well in 96-well culture plates. After 24 h, the tested chalcones in concentrations of 100, 50 and 10 μmol/L were added and incubation proceeded for the next 72 h. In the next step, 10 μL of MTT (5 mg/mL) was added to each well containing cells and incubated for another 4 h at 37 °C during which MTT was metabolized to insoluble formazan in cells. After 4 h, 100 μL of a 10% sodium dodecyl sulphate (SDS) was added to each well and another 24 h were allowed for the formazan crystals to dissolve. The metabolic activity of cells was evaluated by measuring the absorbance at wavelength 540 nm using the automated Cytation™ 3 Cell Imaging Multi-Mode Reader (Biotek, Winooski, VT, USA). Three independent analyses were performed.

## COc1cccc(OC)c1C(=O)/C=C/c1c2ccccc2nc2ccccc12 [Compound 1C, (2E)-3-(acridin-9-yl)-1-(2,6-dimethoxyphenyl)prop-2-en-1-one]
A2058; Homo sapiens, A2058, 72 h incubation
  IC50: 8.4 ± 0.05 µM
A2058; MCF-10A vs A2058, calculated on the basis of BrdU results
  Selectivity index, A2058 (BrdU): 3.9
BLM; Homo sapiens, BLM, 72 h incubation
  IC50: 16.51 ± 0.01 µM
BLM; MCF-10A vs BLM, calculated on the basis of BrdU results
  Selectivity index, BLM (BrdU): 1.99
BLM melanoma cells [1]; 24 h
  Dead An−/PI+: 6.25 ± 0.20
  Early Apo An+/PI−: 12.96 ± 0.77
  Late Apo An+/PI+: 6.90 ± 0.09
  Live An−/PI−: 73.90 ± 0.49
BLM melanoma cells [1]; 48 h
  Dead An−/PI+: 5.81 ± 0.86
  Early Apo An+/PI−: 20.25 ± 1.27
  Late Apo An+/PI+: 12.40 ± 0.49
  Live An−/PI−: 61.50 ± 2.61
BLM melanoma cells [1]; 72 h
  Dead An−/PI+: 5.90 ± 1.47
  Early Apo An+/PI−: 25.95 ± 3.80
  Late Apo An+/PI+: 28.55 ± 3.23
  Live An−/PI−: 39.60 ± 0.90
A2058 melanoma cells
  Proliferation and viability (AO/PI staining): significant decrease in proliferation and viability
BLM melanoma cells [2]
  Proliferation and viability (AO/PI staining): significant decrease in proliferation and viability
MCF-10A
  IC50: 36.5 ± 0.87 µM
